Data: article PMC7751175, “Lateral Gene Transfer Acts As an Evolutionary Shortcut to Efficient C4 Biochemistry” (Molecular Biology and Evolution, 2020)

Legend:
Test in all cases: malate dehydrogenase-coupled NADH oxidation at […] nm; nonlinear regression
Settings in all cases: co-substrate bicarbonate, 5 mM MgCl2, 50 mM Tris-HCl pH 7.4, 25 °C; read-out: KM(PEP)
[1] = tested on: isoform 5, native co-opted ppc-1P3 PEPC (MAD1-03); format: biochemical, Alloteropsis semialata
[2] = tested on: isoform 10, Donor_A ppc-1P3_A PEPC; format: biochemical, Themeda triandra
[3] = tested on: isoform 12, Donor_C ppc-1P3_C PEPC; format: biochemical, Setaria barbata
[4] = tested on: isoform 1, non-C4 ppc-1P6 PEPC (RSA5-03); format: biochemical, Alloteropsis semialata
[5] = tested on: isoform 8, ppc-1P3_LGT:M PEPC (A. cimicina); format: biochemical, Alloteropsis cimicina
[6] = tested on: isoform 7, Donor_M ppc-1P3_M PEPC; format: biochemical, Megathyrsus maximus
[7] = tested on: isoform 11, ppc-1P3_LGT:A PEPC (AUS1-01); format: biochemical, Alloteropsis semialata
[8] = tested on: isoform 2, native co-opted ppc-1P6 PEPC (TPE1-10); format: biochemical, Alloteropsis semialata
[9] = tested on: isoform 6, native co-opted ppc-1P3 PEPC (AANG4-8); format: biochemical, Alloteropsis angusta

C=C(OP(=O)(O)O)C(=O)O [PEP]
Km [1]: 188 ± 12.5 µM | Km [2]: 687 ± 72.8 µM | Km [3]: 612 ± 55.9 µM | Km [4]: 319 ± 33.5 µM | Km [5]: 710 ± 47.2 µM | Km [6]: 921 ± 99.1 µM | Km [7]: 699 ± 50.4 µM | Km [8]: 196 ± 12.9 µM | Km [9]: 324 ± 23.3 µM
